Tests used:
Assay type in all cases: in vivo, Solanum lycopersicum
[1] = tested on: exodermal lignin cap (apoplastic barrier) of tomato root; test: Apoplastic tracer assay with propidium iodide (PI); conditions: 200 μM PA 24 hours, then PI 30 minutes
Method: Seeds of M82 were grown in 1% MS+1% sucrose. Four days after germination, plants were transferred to new MS square plates with/without 200 μM of piperonylic acid (Sigma P49805-5G) and 200 μM piperonylic acid plus 10 mM monolignols (Sigma Aldrich 223735-100MG,404586-100MG) for 24 hours in the dark, with DMSO as the solvent. […] The roots were washed in water and one cm segments from the root tip were embedded in 3% agarose and made sections of 150-200 μM using a vibratome (Leica VT1000 S). Confocal Laser Scanning microscopy was performed on a Zeiss LSM700 confocal with the 20× objective, at 405 nm excitation and 600-650 nm detection.

[2] = tested on: tomato root; test: Root growth after 24 h piperonylic acid treatment; conditions: 200 μM PA, 4-day-old plants, newly grown root zone after transfer
Method: FIG. 7A-B (also referred to as Supplemental FIG. 2 in technical section). […] A. Schematic representation of the experimental design to test the PA. 4-day-old plants after germination were transferred to MS media+1% sucrose with and without 200 μM of PA. After 24 hours, root growth was measured for the part of the root that grew after transferring. Orange horizontal bar=newly grown root after transferring. B. Root growth after 24H in control and PA treatment for the newly root zone after transferring (statistical significance test determined by ANOVA p-value 0.05).
Seeds of M82 were grown in 1% MS+1% sucrose. Four days after germination, plants were transferred to new MS square plates with/without 200 μM of piperonylic acid (Sigma P49805-5G) and 200 μM piperonylic acid plus 10 mM monolignols (Sigma Aldrich 223735-100MG,404586-100MG) for 24 hours in the dark, with DMSO as the solvent. Three cm segments from the root tip including the root meristem were exposed to 15 μg/mL PI (P4170; Sigma) in the dark at 30° C. for 1 h. The roots were washed in water and one cm segments from the root tip were embedded in 3% agarose and made sections of 150-200 μM using a vibratome (Leica VT1000 S). Confocal Laser Scanning microscopy was performed on a Zeiss LSM700 confocal with the 20× objective, at 405 nm excitation and 600-650 nm detection.

[3] = tested on: root lignin biosynthesis within the endodermis and exodermis; test: Root lignin deposition (basic fuchsin staining) after PA treatment; conditions: 200 μM PA, 24 hours
Method: For root sections stained with basic fuchsin (Fisher scientific Cat no 632-99-5) and calcofluor white (PhytoTechnology laboratories Cat no 4404-43-7), 1 cm segments from the root tip were embedded in 3% agarose and were sectioned at 150-200 μM using a vibratome (Leica VT1000 S). The sections were stained in Clearsee buffer (Ursache et al. 2018) with basic fuchsin for 30 minutes then washed two times. In some cases, the sections were stained with calcofluor after basic fuchsin for 30 minutes and washed two times. Confocal Laser Scanning microscopy was performed on a Zeiss LSM700 confocal with the 20× objective, basic fuchsin: 550-561 nm excitation and 570-650 nm detection. Root samples were mounted in ClearSee (Ursache et al., 2018) and scanned and imaged on a Zeiss Observer Z1 with the 20× or 40× objective, basic fuchsin: 550-561 nm excitation and 570-650 nm detection and calcofluor white: 405 nm excitation and 425-475 nm detection.
Seeds of M82 were grown in 1% MS+1% sucrose. Four days after germination, plants were transferred to new MS square plates with/without 200 μM of piperonylic acid (Sigma P49805-5G) and 200 μM piperonylic acid plus 10 mM monolignols (Sigma Aldrich 223735-100MG,404586-100MG) for 24 hours in the dark, with DMSO as the solvent. […]

## O=C(O)c1ccc2c(c1)OCO2 [PA, Piperonylic acid]
[1]
  PI penetration into cortex cells: Pt was observed after exposure within cortex cells
[1]; control versus PA-treated
  PI signal in the exodermal lignin cap (PI blockage): more intense in control relative to PA-treated plants
[2]
  root growth: does not interfere with root growth
[2]; listed as Piperonylic acid
  root growth: does not affect root growth
[3]
  root lignin biosynthesis within the endodermis and exodermis: does disrupt root lignin biosynthesis

From US20260103721A1, “GENES CONTROLLING BARRIER FORMATION IN ROOTS” (The Regents of the University of California, priority 2022, published 2026)
